{"source": "patent US20190055267A1", "about": "“ORGANOTRIFLUOROBORATE MIMICS OF AMINO ACIDS AND USES THEREOF” (The United States of America, as represented by the …, priority 2015, published 2019)", "key": {"U87MG cells": {"system": "U87MG cells", "assay": "In vitro competitive inhibition of boramino acid uptake by natural amino acids and transporter inhibitors", "parameters": "inhibition: dose or concentration left out as unconfirmed", "details": "for inhibition of uptake by sodium free medium: U87MG cells; for inhibition at 25000 µM / inhibition: Homo sapiens, U-87 MG, 1 h; for inhibition: read-out: inhibition of uptake of 18F-Leu-BF3", "method": "The U87MG cells were in Dulbecco modified Eagle medium and Minimum Essential Medium under a humidified atmosphere with 5% CO2 at 37° C. The culture media was supplemented with 10% fetal bovine serum, 100 U/mL penicillin, and 100 μg/mL streptomycin. […] Prior to incubation, the cells were washed with phosphate-buffered saline (PBS). […] The cells were then washed 3 times with ice-cold PBS, quenched with 0.1 M of NaOH and the cell-bound radioactivity was counted using a gamma counter. Uptake is defined as percentage of added radioactive dose (% AD).\nThe control is incubation with BAA only without competitor."}, "amino acid transporters [1]": {"system": "amino acid transporters", "details": "natural amino acid, comparison value; read-out: KM/μM, AA; cited from earlier work"}, "amino acid transporters [2]": {"system": "amino acid transporters", "assay": "Uptake-concentration kinetics, Michaelis-Menten fitting, in U87MG cells", "type": "cell-based, human", "details": "60 min at 37° C. in PBS, read-out: KM/μM, ^18F-AA-BF3 (BAA)", "experimental": "The uptake of BAA in U87MG cells was measured at increasing concentrations in phosphate-buffered saline (PBS) and plotted against the concentration of BAA. […] The KM values of ^18F-BAAs were calculated by Michaelis-Menten fitting using Igor Pro 6.22.\nThe uptake-concentration correlations (FIGS. 12-15) fit well with Michaelis-Menten kinetics, giving the values of Table 4."}, "[3]": {"assay": "Solvolysis of the BF3 moiety in phosphate buffer", "type": "physicochemical", "details": "for t1/2/min: half-life in phosphate buffer at pH 7.4; for pKB-F: pK of the first fluorine of the BF3− moiety; for k (solv)/min^−1: rate of solvolysis, phosphate buffer pH 7.4", "text": "See also, Liu et al., Chem. Eur. J., 2015, 21:3924-8, incorporated herein by reference in its entirety."}, "[4]": {"details": "COOH group of the corresponding amino acid; cited from earlier work"}, "system P transporters": {"system": "system P transporters", "details": "read-out: KM value, cited from earlier work"}, "[5]": {"details": "read-out: inhibition of uptake of 18F-Ala-BF3"}, "[6]": {"details": "read-out: inhibition of uptake of 18F-Phe-BF3"}, "[7]": {"details": "read-out: inhibition of uptake of 18F-Pro-BF3"}}, "note": "Where two headings read alike, the source gives them in different places.", "data": [{"smiles": "C[C@H]([NH3+])[B-](F)(F)[18F]", "note": "[^18F-Ala-BF3]", "values": [{"measurement": "inhibition of uptake by sodium free medium", "setting": "U87MG cells; 18F-Ala-BF3, 60 min incubation", "result": 91.1, "unit": "%"}]}, {"smiles": "C[C@H](N)C(=O)O", "note": "[L-Alanine]", "values": [{"measurement": "Km", "setting": "amino acid transporters [1]", "result": 370, "unit": "µM"}, {"measurement": "inhibition at 25000 µM", "setting": "U87MG cells; [5]", "result": "~90", "unit": "%"}, {"measurement": "inhibition", "setting": "U87MG cells", "result": 38.9, "unit": "%"}, {"measurement": "inhibition at 25000 µM", "setting": "U87MG cells; [6]", "result": 60.3, "unit": "%"}]}, {"smiles": "C[C@H]([NH3+])[B-](F)(F)F", "note": "[^18F-Ala-BF3]", "values": [{"measurement": "Km", "setting": "amino acid transporters [2]", "result": "468 ± 87.2", "unit": "µM"}]}, {"smiles": "CNC(C)(C)C(=O)O", "note": "[MeAIB, 2-methylaminoisobutyric acid]", "values": [{"measurement": "inhibition at 25000 µM", "setting": "U87MG cells; [5]", "result": 39.3, "unit": "%"}, {"measurement": "inhibition", "setting": "U87MG cells", "result": 24.5, "unit": "%"}, {"measurement": "inhibition at 25000 µM", "setting": "U87MG cells; [6]", "result": 17.6, "unit": "%"}, {"measurement": "inhibition at 25000 µM", "setting": "U87MG cells; [7]", "result": 39.3, "unit": "%"}]}, {"smiles": "C[C@H]([NH3+])[B-](F)(F)F", "note": "[Ala-BF3]", "values": [{"measurement": "t1/2/min", "setting": "[3]", "result": 56.42, "unit": "h"}, {"measurement": "pKB-F", "setting": "[3]", "result": 3.6895}, {"measurement": "k (solv)/min^−1", "setting": "[3]", "result": 0.0002044, "unit": "min⁻¹"}, {"measurement": "pka of corres. COOH", "setting": "[4]", "result": 2.35}]}, {"smiles": "[NH3+]C(Cc1ccccc1)[B-](F)(F)F", "note": "(centres unmarked) [Phe-BF3]", "values": [{"measurement": "t1/2/min", "setting": "[3]", "result": 92.45, "unit": "h"}, {"measurement": "pKB-F", "setting": "[3]", "result": 3.904}, {"measurement": "k (solv)/min^−1", "setting": "[3]", "result": 0.0001247, "unit": "min⁻¹"}, {"measurement": "pka of corres. COOH", "setting": "[4]", "result": 2.2}]}, {"smiles": "CSCC[C@H]([NH3+])[B-](F)(F)F", "note": "[Met-BF3]", "values": [{"measurement": "t1/2/min", "setting": "[3]", "result": 116.4, "unit": "h"}, {"measurement": "pKB-F", "setting": "[3]", "result": 4.0041}, {"measurement": "k (solv)/min^−1", "setting": "[3]", "result": "9.906e-05", "unit": "min⁻¹"}, {"measurement": "pka of corres. COOH", "setting": "[4]", "result": 2.13}]}, {"smiles": "F[B-](F)([18F])[C@@H]1CCC[NH2+]1", "note": "[^18F-Pro-BF3]", "values": [{"measurement": "inhibition of uptake by sodium free medium", "setting": "U87MG cells; 18F-Pro-BF3, 60 min incubation", "result": 76.2, "unit": "%"}]}, {"smiles": "N=C(N)NCCC[C@H](N)C(=O)O", "note": "[L-Arginine]", "values": [{"measurement": "inhibition at 25000 µM", "setting": "U87MG cells; [5]", "result": 58.2, "unit": "%"}, {"measurement": "inhibition", "setting": "U87MG cells", "result": 23, "unit": "%"}, {"measurement": "inhibition at 25000 µM", "setting": "U87MG cells; [6]", "result": 42.6, "unit": "%"}, {"measurement": "inhibition at 25000 µM", "setting": "U87MG cells; [7]", "result": 15.6, "unit": "%"}]}, {"smiles": "O=C(O)[C@@H]1CCCN1", "note": "[proline]", "values": [{"measurement": "Km", "setting": "amino acid transporters [1]", "result": "67 ± 11.5", "unit": "µM"}, {"measurement": "Km", "setting": "system P transporters; system P transporter with high KM", "result": "~5000", "unit": "µM"}, {"measurement": "Km", "setting": "system P transporters; system P transporter with low KM", "result": "~100", "unit": "µM"}, {"measurement": "inhibition at 25000 µM", "setting": "U87MG cells; [7]", "result": "~80", "unit": "%"}]}, {"smiles": "F[B-](F)(F)[C@@H]1CCC[NH2+]1", "note": "[Pro-BF3]", "values": [{"measurement": "t1/2/min", "setting": "[3]", "result": 210.58, "unit": "h"}, {"measurement": "pKB-F", "setting": "[3]", "result": 4.2615}, {"measurement": "k (solv)/min^−1", "setting": "[3]", "result": "5.476e-05", "unit": "min⁻¹"}, {"measurement": "pka of corres. COOH", "setting": "[4]", "result": 1.95}]}]}
